# Experimental data reported in patent US10568892B2, “Cycloartane tetracyclic triterpenoid compound, preparation method therefor and use thereof” (Hefei Cosource Pharmaceuticals Inc., priority 2016, dated 2020).
# Read-outs that look alike come from different tables or passages of the source. Marks after values point to notes of the source that are not given here.
# Experiments:
# [1] = Single-dose toxicity (MTD) in KM mice; type: in vivo; conditions: in vivo, po; KM mouse; single intragastrical administration; read-out: Maximum tolerance dose (MTD)
# From the text: The results of the experimental study on the toxicity of Compound 369 administrated through a single intravenous or intragastrical administration in SD rats and KM mice are shown in Table 9.
# [2] = Pharmacokinetics in SD rats; type: in vivo, rat; conditions: rat, in vivo
# Experimental: Method: twelve SD male rats were divided into four groups: 2 mg/kg of Compound 369 or cyclovirobuxine D was single dose through the intravenous injection or intragastrical administration, respectively. In the intravenous and intragastrical groups, blood samples (about 0.3 Ml) were collected from the posterior orbital venous plexus pro-dose and 0.25 h, 0.5 h, 1 h, 2 h, 4 h, 6 h, 8 h, and 12 h post-dose. The concentrations of Compound 369 and cyclovirobuxine D in plasma samples were determined by LC-MS/MS, and the pharmacokinetic parameters were calculated by DAS.3.0 software.
# [3] = Pharmacokinetics in Beagle canines; type: in vivo; conditions: dog, in vivo
# Experimental: Method: Six healthy male Beagle canines were selected and divided into two groups. 2 mg/kg of Compound 369 or cyclovirobuxine D was administrated intragastrically, respectively. Blood samples (about 2 mL) were collected from the limb venous of canines 0 h before administration as well as 0.25 h, 0.5 h, 1 h, 2 h, 4 h, 6 h, 8 h, and 12 h after administration. The concentrations of Compound 369 and cyclovirobuxine D in plasma samples were determined by LC-MS/MS, and the pharmacokinetic parameters were calculated by DAS.3.0 software.
# [4] = system: ventricular papillary muscle cell of guinea pig; test: Action potential of the ventricular papillary muscle cell of guinea pig (electrophysiological recording); type: cell-based; conditions: for percent change in action potential duration at 0.0005 µM / percent change in action potential duration at 0.005 µM / percent change in action potential duration at 0.05 µM: Cavia porcellus, 20 min, read-out: APD, Change rate (%); for APD50, Pre-administration / APD90, Pre-administration: baseline; for Effect on the APD value of the action potential of the papillary muscle (in words): Table 3 summary
# Experimental: Method: One guinea pig was taken to violently hit the back of the brain such that it fainted. The common carotid artery was cut off for bleeding to kill the guinea pig. The chest was incised to expose the heart, and the ventricle was cut open along the interventricular septum to expose the lumen of the left ventricle. The papillary muscles were quickly taken out and placed in a Kreb's solution saturated with O2 (mixed gas of 95% O2 and 5% CO2) at 0° C. After the microscopic dressing, the papillary muscle specimen was fixed with a stainless steel needle on the silicone rubber at the bottom of the perfusion bath, and perfused with the oxygen-saturated Kreb's solution. The relevant parameters for perfusion: the temperature was 37±0.5° C., and the flow rate was 4 mL/min.
# Cellular action potentials were recorded using a conventional electrophysiological method. The glass electrode filled with 3M KCl saturated solution and having a tip resistance of 15-30 MΩ was fixed on the microelectrode manipulator MP-2. The glass electrode was gently inserted into the superficial layer of the prepared papillary muscle specimen using a microelectrode pusher. The electrode was adjusted to provide the predetermined bioelectrical stimulation with the triple-channel SEN-7203 electronic stimulator and SS-202 J isolator. The bioelectrical signal was amplified by the MEZ-8301 amplifier and then input to the computerized electrophysiological recording and analysis system Powerlab 4/25. Subsequently, the relevant parameters of the action potential for the ventricular papillary muscle were analyzed through the analysis system. The relevant parameters for electrical stimulation: 30 ms latency, 7 ms wavewidth, 1 Hz frequency, 52.1 my stimulation intensity.
# In the compound screening test stage, after the ventricular papillary muscle specimen of the guinea pig was fixed, it was first perfused with a normal Kreb's solution for about 85 minutes for stabilization, and the relevant parameters of the cellular action potential before administration were recorded at about 80 min after the start of perfusion. The three-limb tube was used to convert the perfusates containing the title compounds. The title compounds were continuously perfused for about 25 min successively with low (0.0005 μM), medium (0.005 μM), and high (0.05 μM) concentrations, respectively. At about 20 min after the start of drug perfusions at different concentrations, the relevant parameters of the action potentials for the ventricular papillary muscle of guinea pig were observed and recorded, respectively. The normal Kreb's solution was used to perfuse and elute for about 25 min during the intervals between drug perfusions at different concentrations.
# The experiment was divided into the following five groups with 6 animals in each group: a vehicle control group, a 369 low dose (0.0005 μM) group, a 369 medium dose (0.005 μM) group, a 369 high dose (0.05 μM) group, and an amiodarone (10 μM) positive control group. After the ventricular papillary muscle specimen of the guinea pig was fixed, it was first perfused with a normal Kreb's solution for about 85 minutes for stabilization, and the relevant parameters of the cellular action potential before administration were recorded at about 80 min after the start of perfusion. According to groups, the three-limb tube was configured to convert the perfusates containing the vehicle, positive control, or Compound 369 at the corresponding concentrations to continuously perfuse for about 25 min. At about 20 min after the start of the perfusions, the relevant parameters of the action potentials for the ventricular papillary muscle of guinea pig were observed and recorded.
smiles,measurement,setting,value
"CN[C@H]1CC[C@]23C[C@]24CC[C@]2(C)C(C(C)=O)=CC[C@@]2(C)[C@@H]4CC[C@H]3C1(C)C [Compound 369, (3β,5α)-4,4,14-trimethyl-3-(methylamino)-9,19-cyclopregnan-16-en-20-one]",MTD,[1],1000 mg/kg
same,F,"[2]; male, SD, 2 mg/kg",35%
same,AUC(0-t),"[2]; male, SD, iv, 2 mg/kg",249 ng·h/mL
same,Cmax,"[2]; male, SD, iv, 2 mg/kg",103 ng/mL
same,Tmax,"[2]; male, SD, iv, 2 mg/kg",0.25 h
same,half-life,"[2]; male, SD, iv, 2 mg/kg",4.1 h
same,AUC(0-t),"[2]; male, SD, po, 2 mg/kg",84.6 ng·h/mL
same,Cmax,"[2]; male, SD, po, 2 mg/kg",11.4 ng/mL
same,Tmax,"[2]; male, SD, po, 2 mg/kg",5 h
same,half-life,"[2]; male, SD, po, 2 mg/kg",3.5 h
same,Exposures in plasma (AUC and Cmax values) vs cyclovirobuxine D (in words),[2],slightly lower than that of cyclovirobuxine D
same,Half-life (T1/2) vs cyclovirobuxine D (in words),[2],significantly shorter than that of cyclovirobuxine D
same,Exposures in plasma (AUC and Cmax values) vs cyclovirobuxine D (in words),[3],higher than that of cyclovirobuxine D
same,Half-life (T1/2) vs cyclovirobuxine D (in words),[3],shorter than that of cyclovirobuxine D
same,AUC(0-t),"[3]; male, Beagle, po, 2 mg/kg",505 ng·h/mL
same,Cmax,"[3]; male, Beagle, po, 2 mg/kg",43.4 ng/mL
same,Tmax,"[3]; male, Beagle, po, 2 mg/kg",2.67 h
same,half-life,"[3]; male, Beagle, po, 2 mg/kg",11.1 h
same,"Effect on APD, APD50 and APD90 (in words)","[4]; 0.0005 μM, 0.005 μM and 0.05 μM, concentration-dependent","can prolong APD, APD50 and APD90"
same,percent change in action potential duration at 0.0005 µM,"[4]; n = 6, x ± SD, 0.0005 μM",43.6%
same,percent change in action potential duration at 0.005 µM,"[4]; n = 6, x ± SD, 0.005 μM",43.5%
same,percent change in action potential duration at 0.05 µM,"[4]; n = 6, x ± SD, 0.05 μM",66.5%
same,percent change in action potential duration at 0.0005 µM,"[4]; screening stage, 0.0005 μM",26.8%
same,percent change in action potential duration at 0.005 µM,"[4]; screening stage, 0.005 μM",47.9%
same,percent change in action potential duration at 0.05 µM,"[4]; screening stage, 0.05 μM",65.7%
same,"APD50, Change rate (%)","[4]; n = 6, x ± SD, 0.0005 μM",49.41% ± 16.99%
same,"APD50, Post-administration","[4]; n = 6, x ± SD, 0.0005 μM",0.0572 ± 0.0247^a
same,"APD90, Change rate (%)","[4]; n = 6, x ± SD, 0.0005 μM",44.30% ± 17.58%^b
same,"APD90, Post-administration","[4]; n = 6, x ± SD, 0.0005 μM",0.0795 ± 0.0260^a
same,"APD, Post-administration","[4]; n = 6, x ± SD, 0.0005 μM",0.0930 ± 0.0246^a
same,"APD50, Pre-administration","[4]; n = 6, x ± SD, 0.0005 μM group",0.0365 ± 0.0183
same,"APD90, Pre-administration","[4]; n = 6, x ± SD, 0.0005 μM group",0.0537 ± 0.0235
same,"APD50, Change rate (%)","[4]; n = 6, x ± SD, 0.005 μM",47.25% ± 28.78%
same,"APD50, Post-administration","[4]; n = 6, x ± SD, 0.005 μM",0.0610 ± 0.0342^a
same,"APD90, Change rate (%)","[4]; n = 6, x ± SD, 0.005 μM",40.25% ± 24.21%^b
same,"APD90, Post-administration","[4]; n = 6, x ± SD, 0.005 μM",0.0838 ± 0.0345^a
same,"APD, Post-administration","[4]; n = 6, x ± SD, 0.005 μM",0.1023 ± 0.0365^a
same,"APD50, Pre-administration","[4]; n = 6, x ± SD, 0.005 μM group",0.0428 ± 0.0244
same,"APD90, Pre-administration","[4]; n = 6, x ± SD, 0.005 μM group",0.0604 ± 0.0243
same,"APD50, Change rate (%)","[4]; n = 6, x ± SD, 0.05 μM",101.63% ± 62.10%^b
same,"APD50, Post-administration","[4]; n = 6, x ± SD, 0.05 μM",0.0764 ± 0.0270^a
same,"APD90, Change rate (%)","[4]; n = 6, x ± SD, 0.05 μM",70.81% ± 46.76%^b
same,"APD90, Post-administration","[4]; n = 6, x ± SD, 0.05 μM",0.1006 ± 0.0242^a
same,"APD, Post-administration","[4]; n = 6, x ± SD, 0.05 μM",0.1199 ± 0.0235^a
same,"APD50, Pre-administration","[4]; n = 6, x ± SD, 0.05 μM group",0.0385 ± 0.0090
same,"APD90, Pre-administration","[4]; n = 6, x ± SD, 0.05 μM group",0.0603 ± 0.0103
same,Effect on the APD value of the action potential of the papillary muscle (in words),[4]; screening stage,the strongest effect
same,Effect on the APD value of the action potential of the papillary muscle (in words),"[4]; screening stage, listed as Example 1",a certain degree of prolonged effects
same,"APD, Post-administration","[4]; screening stage, 0.0005 μM, about 20 min perfusion",0.0912
same,"APD, Post-administration","[4]; screening stage, 0.005 μM, about 20 min perfusion",0.1031
same,"APD, Post-administration","[4]; screening stage, 0.05 μM, about 20 min perfusion",0.1168
